Measured values from publication PMC6522912, “Evaluation of the published kinase inhibitor set to identify multiple inhibitors of bacterial ATP-dependent mur ligases” (Journal of Enzyme Inhibition and Medicinal Chemistry, 2019).
Like-named read-outs stand apart in the source and are kept apart here.

How the values were obtained:
E. coli MurC = E. coli MurC (Escherichia coli, UniProt P17952); assay: Malachite green inhibition assay, MurC; type: biochemical; conditions: for remaining activity at 100 µM: 0.25 h; for IC50 / MurC RA [%]: Table 1; for IC50: read-out: MurC IC50; for MurC RA [%]: residual activity at 100 µM compound
Chain of E. coli MurC (P17952 whole entry): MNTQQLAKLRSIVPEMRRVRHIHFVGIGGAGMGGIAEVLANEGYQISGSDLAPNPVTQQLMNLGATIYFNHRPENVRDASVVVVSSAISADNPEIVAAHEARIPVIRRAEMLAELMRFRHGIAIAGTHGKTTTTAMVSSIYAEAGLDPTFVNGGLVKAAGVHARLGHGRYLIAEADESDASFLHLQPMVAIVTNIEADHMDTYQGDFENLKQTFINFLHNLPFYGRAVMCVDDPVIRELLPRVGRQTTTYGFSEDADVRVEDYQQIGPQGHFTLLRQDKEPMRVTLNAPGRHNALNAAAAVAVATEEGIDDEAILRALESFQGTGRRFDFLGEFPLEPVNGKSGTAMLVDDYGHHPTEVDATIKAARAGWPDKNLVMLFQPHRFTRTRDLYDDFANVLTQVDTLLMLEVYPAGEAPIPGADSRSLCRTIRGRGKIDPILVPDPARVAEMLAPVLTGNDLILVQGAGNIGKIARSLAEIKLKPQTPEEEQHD

E. coli MurD = E. coli MurD (Escherichia coli, UniProt P14900); assay: biochemical; conditions: for remaining activity at 100 µM: 0.25 h, Table S1, PKIS screening, read-out: RA [%] at 100 µM MurD; for IC50 / MurD RA [%]: Table 1; for IC50: read-out: MurD IC50; for LE (MurD): ligand efficiency, LE = (1.37 × pIC50)/HAC; for MurD RA [%]: residual activity at 100 µM compound
Chain of E. coli MurD (P14900 whole entry): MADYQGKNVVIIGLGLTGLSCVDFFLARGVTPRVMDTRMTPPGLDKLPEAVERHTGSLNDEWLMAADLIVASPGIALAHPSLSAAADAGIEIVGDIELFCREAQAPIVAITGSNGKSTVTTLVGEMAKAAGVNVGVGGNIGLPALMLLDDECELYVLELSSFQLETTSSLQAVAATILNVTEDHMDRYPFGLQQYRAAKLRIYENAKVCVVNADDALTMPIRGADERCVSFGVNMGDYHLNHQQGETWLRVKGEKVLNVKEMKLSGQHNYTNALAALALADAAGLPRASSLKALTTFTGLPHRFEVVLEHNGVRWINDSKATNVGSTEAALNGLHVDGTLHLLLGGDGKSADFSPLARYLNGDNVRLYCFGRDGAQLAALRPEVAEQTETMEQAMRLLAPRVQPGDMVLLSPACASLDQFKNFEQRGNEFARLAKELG
Procedure, shortened: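 Orthophosphate released by E. coli MurD quantified by malachite green (Biomol green) absorbance at 650 nm after 15 min at 37 °C. Residual activity relative to DMSO-only controls.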

E. coli MurE = E. coli MurE (Escherichia coli, UniProt P22188); assay: Malachite green inhibition assay, MurE; type: biochemical; conditions: for IC50 / MurE RA [%]: Table 1; for IC50: read-out: MurE IC50; for MurE RA [%]: residual activity at 100 µM compound
Chain of E. coli MurE (P22188 whole entry): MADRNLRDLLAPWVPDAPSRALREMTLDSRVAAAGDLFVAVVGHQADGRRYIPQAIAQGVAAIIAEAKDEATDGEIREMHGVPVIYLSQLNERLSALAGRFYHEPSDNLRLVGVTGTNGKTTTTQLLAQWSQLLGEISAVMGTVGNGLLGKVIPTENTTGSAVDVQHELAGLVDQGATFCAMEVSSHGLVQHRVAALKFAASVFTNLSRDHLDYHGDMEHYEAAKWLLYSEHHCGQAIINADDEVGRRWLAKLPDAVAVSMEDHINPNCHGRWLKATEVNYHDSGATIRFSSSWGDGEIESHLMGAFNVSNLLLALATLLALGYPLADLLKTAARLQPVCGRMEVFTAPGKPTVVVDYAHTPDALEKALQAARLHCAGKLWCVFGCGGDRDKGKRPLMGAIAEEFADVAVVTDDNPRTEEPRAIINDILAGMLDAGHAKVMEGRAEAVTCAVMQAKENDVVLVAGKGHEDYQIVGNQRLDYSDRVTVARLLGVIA
Protocol: Inhibition of the Mur ligases was determined using the malachite green assay, with slight modifications.
MurE: 50 mM Hepes, pH 8.0, 15 mM MgCl2, 0.005% Triton X-114, 60 µM meso-diaminopimelic acid, 100 µM uridine-5′-diphosphate-N-acetylmuramoyl-L-alanine-D-glutamate, 1000 µM ATP, and purified E. coli MurE[27].
In all cases, the final concentration of DMSO was 5% (v/v). After incubation for 15 min at 37 °C, the enzyme reaction was terminated by addition of 100 µM Biomol green reagent, and the absorbance was measured at 650 nm after 5 min. All of the experiments were run in duplicate. Residual activities were calculated with respect to control assays without the tested compounds, but with the 5% DMSO carrier.
The published kinase inhibitor set compounds were evaluated for inhibition of MurC, D and F ligases from E. coli using the Malachite green assay, which detects orthophosphate generated during enzymatic reactions. To avoid non-specific inhibition due to aggregate formation, all of the compounds were tested in the presence of detergent (0.005% Triton-X114). The data are presented as the residual activities of these Mur ligases in the presence of 100 µM of each test compound (Supporting Information Table S1). […]. The IC50 values against MurC, D, E and F were determined for the selected hit compounds – one representative compound from each structural class was chosen: compound 1[33], aza-stilbene derivative; compound 2[34], alkynyl pyrimidine; compound 3[35], pyrazolo [1,5]-b]pyridazine; compound 4[36], phenoxypyrimidine; compound 5[37], 4,6-bis-anilino-1H-pyrrolo[2,3-pyrimidine (Table 1). […]. […] Among the hits, compounds for further mechanistic studies were chosen on the basis of their ligand efficiency. Ligand efficiency quantifies the molecular properties, particularly size and lipophilicity and is used as a selection criterion for structurally different compounds as more ‘efficient’ ligands have the potential to control for the inflation of these properties[38] Thus ligand efficiencies were calculated for the four hits (Supporting Information Table S2)[39]^,[40], and compound 1 was selected as the most promising for additional studies. Additionally, regarding the data of profiled compounds in large panels of human kinase assays[41] […] To provide sufficient amounts of compound 1 for kinetic and NMR studies, it was resynthesized according to the synthetic procedures (Figure 2) described in the literature.

E. coli MurF = E. coli MurF (Escherichia coli, UniProt P11880); assay: biochemical; conditions: for remaining activity at 100 µM: 0.25 h, Table S1, PKIS screening, read-out: RA [%] at 100 µM MurF; for IC50 / MurF RA [%]: Table 1; for LE (MurF): ligand efficiency, LE = (1.37 × pIC50)/HAC; for MurF RA [%]: residual activity at 100 µM compound
Chain of E. coli MurF (P11880 whole entry): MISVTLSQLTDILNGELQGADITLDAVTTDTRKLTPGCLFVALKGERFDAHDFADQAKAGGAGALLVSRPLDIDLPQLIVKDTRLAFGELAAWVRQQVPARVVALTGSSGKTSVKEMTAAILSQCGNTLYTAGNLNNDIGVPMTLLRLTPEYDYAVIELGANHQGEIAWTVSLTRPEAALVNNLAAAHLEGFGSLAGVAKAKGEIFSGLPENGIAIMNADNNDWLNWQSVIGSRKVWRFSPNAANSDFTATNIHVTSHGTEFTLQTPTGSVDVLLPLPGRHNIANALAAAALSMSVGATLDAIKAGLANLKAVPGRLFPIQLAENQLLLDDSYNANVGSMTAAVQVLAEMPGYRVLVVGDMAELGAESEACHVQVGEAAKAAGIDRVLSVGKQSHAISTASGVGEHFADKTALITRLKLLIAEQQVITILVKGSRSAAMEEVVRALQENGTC

human kinases = conditions: over 200 kinase activity assays and 68 DSF assays; cited from earlier work
[1] = Table S1, PKIS screening, read-out: RA [%] at 100 µM MurC
[2] = read-out: RA [%] at 100 µM MurC, Table S1, PKIS screening

Q: What does the source list for `Nc1ccc(C#Cc2cncnc2Nc2ccc(OCc3cccc(F)c3)c(Cl)c2)cc1` [Compound 2]?
A: remaining activity at 100 µM (E. coli MurC; [1]): 43%; IC50 (E. coli MurC): 62 µM; MurC RA [%] (E. coli MurC): 43%; remaining activity at 100 µM (E. coli MurD): 51%; IC50 (E. coli MurD): 104 µM; LE (MurD) (E. coli MurD): 0.17; MurD RA [%] (E. coli MurD): 51%; IC50 (E. coli MurE): 157 µM; MurE RA [%] (E. coli MurE): 50%; remaining activity at 100 µM (E. coli MurF): 30%; IC50 (E. coli MurF): 39 µM; LE (MurF) (E. coli MurF): 0.19; MurF RA [%] (E. coli MurF): 30%; activity at human kinases (human kinases): no appreciable activity

Q: With `COc1ccc(-c2nn3ncccc3c2-c2ccnc(Nc3cccc(C(F)(F)F)c3)n2)cc1` [Compound 3] as the compound, how does the remaining activity at 100 µM (E. coli MurC; [2]) read?
A: 10%

Q: What about the IC50 (E. coli MurC) of the same compound?
A: 74 µM

Q: And the “MurC RA [%]” value (E. coli MurC)?
A: 10%

Q: And the remaining activity at 100 µM (E. coli MurD)?
A: 80%

Q: And the “residual activity printed in column IC50 MurD” value (E. coli MurD; Table S2)?
A: 83%

Q: And the “MurD RA [%]” value (E. coli MurD)?
A: 83%

Q: What about the “residual activity printed in column IC50 MurE” value (E. coli MurE; Table S2) of the same compound?
A: 84%

Q: What about the “MurE RA [%]” value (E. coli MurE) of the same compound?
A: 84%

Q: What about the remaining activity at 100 µM (E. coli MurF) of the same compound?
A: 35%

Q: What about the “residual activity printed in column IC50 MurF” value (E. coli MurF; Table S2) of the same compound?
A: 100%

Q: What about the “MurF RA [%]” value (E. coli MurF) of the same compound?
A: 100%

Q: For `N#Cc1ccc(Oc2nccc(-c3c(-c4ccc(F)cc4)ncn3C3CCNCC3)n2)cc1` [Compound 4], which remaining activity at 100 µM (E. coli MurC; [2]) is on record?
A: 48%

Q: And the IC50 (E. coli MurC)?
A: 90 µM

Q: And the “MurC RA [%]” value (E. coli MurC)?
A: 48%

Q: What about the remaining activity at 100 µM (E. coli MurD) of the same compound?
A: 27%

Q: And the IC50 (E. coli MurD)?
A: 63 µM

Q: What about the “LE (MurD)” value (E. coli MurD) of the same compound?
A: 0.17

Q: And the “MurD RA [%]” value (E. coli MurD)?
A: 27%

Q: What about the IC50 (E. coli MurE) of the same compound?
A: 139 µM

Q: What about the “MurE RA [%]” value (E. coli MurE) of the same compound?
A: 56%

Q: What about the remaining activity at 100 µM (E. coli MurF) of the same compound?
A: 19%

Q: What about the IC50 (E. coli MurF) of the same compound?
A: 95 µM

Q: What about the “LE (MurF)” value (E. coli MurF) of the same compound?
A: 0.17

Q: And the “MurF RA [%]” value (E. coli MurF)?
A: 51%

Q: What about the “activity at human kinases” value (human kinases) of the same compound?
A: no appreciable activity

Q: For `CCCN1CCCC(c2ccc(Nc3nc(Nc4cc(F)ccc4C(N)=O)c4cc[nH]c4n3)c(OC)c2)C1` (centres unmarked) [Compound 5], which remaining activity at 100 µM (E. coli MurC; [1]) is on record?
A: 29%

Q: And the IC50 (E. coli MurC)?
A: 62 µM

Q: What about the “MurC RA [%]” value (E. coli MurC) of the same compound?
A: 29%

Q: What about the remaining activity at 100 µM (E. coli MurD) of the same compound?
A: 10%

Q: What about the IC50 (E. coli MurD) of the same compound?
A: 32 µM

Q: And the “LE (MurD)” value (E. coli MurD)?
A: 0.16

Q: And the “MurD RA [%]” value (E. coli MurD)?
A: 10%

Q: What about the IC50 (E. coli MurE) of the same compound?
A: 58 µM

Q: What about the “MurE RA [%]” value (E. coli MurE) of the same compound?
A: 26%

Q: And the remaining activity at 100 µM (E. coli MurF)?
A: 16%

Q: And the IC50 (E. coli MurF)?
A: 66 µM

Q: What about the “LE (MurF)” value (E. coli MurF) of the same compound?
A: 0.15

Q: What about the “MurF RA [%]” value (E. coli MurF) of the same compound?
A: 16%

Q: And the “activity at human kinases” value (human kinases)?
A: appreciable activity

Q: For `O=C(Nc1n[nH]c2cc(-c3cc(F)ccc3F)ccc12)C1CC1` [SB-735465], which remaining activity at 100 µM (E. coli MurC; [1]) is on record?
A: 59%

Q: What about the remaining activity at 100 µM (E. coli MurD) of the same compound?
A: 80%

Q: And the remaining activity at 100 µM (E. coli MurF)?
A: 82%

Q: For `O=C(Nc1n[nH]c2cc(-c3ccc(F)cc3)ccc12)C1CC1` [SB-735467], which remaining activity at 100 µM (E. coli MurC; [1]) is on record?
A: 51%

Q: And the remaining activity at 100 µM (E. coli MurD)?
A: 75%

Q: And the remaining activity at 100 µM (E. coli MurF)?
A: 103%

Q: Which remaining activity at 100 µM (E. coli MurC; [1]) does the source give for `Nc1nonc1-c1nc2cnccc2n1C1CC1` [SB-736302] here?
A: 92%

Q: And the remaining activity at 100 µM (E. coli MurD)?
A: 100%

Q: What about the remaining activity at 100 µM (E. coli MurF) of the same compound?
A: 77%

Q: Which remaining activity at 100 µM (E. coli MurC; [1]) does the source give for `CCOc1nccc2c1nc(-c1nonc1N)n2CC` [SB-737198] here?
A: 73%

Q: And the remaining activity at 100 µM (E. coli MurD)?
A: 100%

Q: What about the remaining activity at 100 µM (E. coli MurF) of the same compound?
A: 100%

Q: For `NS(=O)(=O)c1ccc(-c2ccc3c(NC(=O)C4CC4)n[nH]c3c2)cc1` [SB-738482], which remaining activity at 100 µM (E. coli MurC; [1]) is on record?
A: 75%

Q: And the remaining activity at 100 µM (E. coli MurD)?
A: 83%

Q: What about the remaining activity at 100 µM (E. coli MurF) of the same compound?
A: 83%

Q: With `CCn1c(-c2nonc2N)nc2ccncc21` [SB-738561] as the compound, how does the remaining activity at 100 µM (E. coli MurC; [1]) read?
A: 78%

Q: What about the remaining activity at 100 µM (E. coli MurD) of the same compound?
A: 58%

Q: What about the remaining activity at 100 µM (E. coli MurF) of the same compound?
A: 100%

Q: For `O=C(Nc1n[nH]c2nc(-c3ccco3)c(Br)cc12)C1CC1` [SB-739452], which remaining activity at 100 µM (E. coli MurC; [1]) is on record?
A: 78%

Q: What about the remaining activity at 100 µM (E. coli MurD) of the same compound?
A: 84%

Q: What about the remaining activity at 100 µM (E. coli MurF) of the same compound?
A: 87%
